“And” between values parts separate entries of the source, which are not always exact repeats. Equal entries are not always repeated. Marks after values point to notes of the source that are not given here. Values belong to the compound of their own block, whether it stands above or below them.
What was measured:
C57/black 6J male mice [1] = assay: Basal (habituated) locomotor activity; format: in vivo
Experimental: (§1) Anti-Parkinson effects of compounds of the invention can be determined using procedures well known in the art such as animal models of locomotor activity. For example, compounds of the invention show effects on basal (habituated) locomotor activity and on reserpine-induced akinesia in C57/black 6J male mice.
Locomotor activity is measured using an automated system to track movement in mice. Mice are placed in chambers and allowed to habituate to the chambers for 30 mins. During this time they show reduced locomotion over time. Following administration of a compound of the invention, animal movement is restored to pre-habituation levels.
More specifically, locomotor activity boxes [40×40×40 cm clear arenas] are situated in groups of 4 placed on infrared tables and testing is performed in the dark. Locomotor activity is recorded and measured using infrared video tracking. Locomotor activity is recorded between time of 8:30 and 17:00 hours. In some instances locomotor activity is measured using open fields which use infrared beam breaks as a measure of movement.
(§2) Mice are randomly assigned to treatment groups. Each mouse is placed individually into one of the locomotor activity boxes. Distance moved (cm) is recorded per 5 minutes for each mouse. Exploratory behavior is assessed for the following 30 minutes. After 30 minutes recording stops and mice are dosed p.o. with the test compound or vehicle in a volume of 10 ml/kg. Once all mice have been dosed, locomotor activity recording is started for a further 120 minutes to assess the effect of treatment on habituated locomotor activity. Data is transferred from the software/computers to spreadsheets for further analysis. Statistical analysis is carried out using Statistica 8.0. One way ANOVA on TOTAL distance moved, with Treatment group as the between factor, is calculated. If a significant Treatment effect (p≦0.05) is observed then post-hoc analysis is performed, either Fishers' LSD or Dunnetts' test.

C57/black 6J male mice [2] = assay: Reversal of reserpine-induced akinesia; format: in vivo
Experimental: as §1
Reserpine is a catecholamine depleting agent (depletes dopamine and noradrenaline) and 18-24 hours after treatment mice become akinetic and have reduced locomotor activity counts. Reserpine-induced akinesia is assessed by measuring the effect of compounds on locomotor activity approximately 18-24 hours after a single dose of 1 mg/kg reserpine i.p. The equipment used is the same as that used for basal locomotor activity (above).
as §2, with “Basal and reserpine-induced exploratory” for “Exploratory”, “compound” for “compound or vehicle”, “dosed” for “dosed,”, “akinesia.” for “habituated locomotor activity.”

[3] = test system: male Fischer F-344 Sasco rats; assay: Attenuation of stress-induced hyperthermia in rats; format: in vivo; conditions: oral, 60-min pretreatment
Experimental: Stress-induced hyperthermia is attenuated by clinical anxiolytics and is widely used preclinically to predict anxiolytic efficacy of compounds.
In separate studies, male Fischer F-344 Sasco rats are dosed orally with 0.3, 1, 3, or 10 mg/kg of test compound in a vehicle consisting of 1% carboxymethylcellulose, 0.25% polysorbate 80, 0.05% antifoam (dose volume=1 ml/kg). The mGluR5 receptor antagonist MTEP (3-[(2-methyl-1,3-thiazol-4-yl)ethynyl]pyridine) (10 mg/kg, PO) is used as a quality control. Following a 60-min pretreatment period, core baseline body temperature is measured (T1, in degrees C.) and then ten minutes later a second body temperature measurement is recorded (T2). The change in body temperature (T2 minus T1) is defined as the stress-induced hyperthermic response. The efficacious dose is the dose at which a compound produces a 35% reduction in stress-induced hyperthermia, relative to the vehicle response, and is defined as the T35 dose.

human mGluR5 = target: T1, human mGluR5 (Homo sapiens, UniProt P41594); assay: Human mGluR5 in vitro functional assay (FLIPR calcium, antagonism of glutamate EC90 response); format: cell-based; conditions: AV-12 cells expressing recombinant human mGlu5a, relative IC50
T1 construct: expressed in transfected cells; host or cells: AV-12 cells containing the rat EAAT1 glutamate transporter
Text: (§3) The activation of G-protein coupled receptors (GPCRs) that are coupled to Gq proteins results in a change in intracellular calcium concentration. This functional response can be measured in a kinetic assay using calcium-sensitive dyes and a fluorescent imaging plate reader using a standard technique known as FLIPR (MDS Analytical Technologies, Sunnyvale, Calif.).
(§4) Stable cell line preparation and assay techniques are adapted from Kingston, A. E., et. al. (1995) Neuropharmacology 34: 887-894. […]
(§5) For the functional assays, cells are seeded in growth medium lacking selection antibiotics at a density of 65K per well into 96-well, black/clear bottom, poly-D-lysine coated microplates and incubated for 18-20 hours prior to the experiment. […] The antagonist effects of compounds are quantified in the FLIPR instrument in 10-point dose curves by comparing the peak fluorescent responses to the agonist glutamate in the presence and absence of compound. Specifically, the compound effect is measured as maximal minus minimal peak heights in relative fluorescent units corrected for basal fluorescence as measured in the absence of glutamate. All data are calculated as relative IC50 values using a four-parameter logistic curve fitting program (Activity Base® v5.3.1.22).

human mGluR1 = target: T2, human mGluR1 (Homo sapiens, UniProt Q13255); assay: Human mGluR1 in vitro functional assay (FLIPR calcium, antagonism of glutamate EC90 response); format: cell-based; conditions: AV-12 cells expressing recombinant human mGlu1α, relative IC50
T2 construct: expressed in transfected cells; host or cells: AV-12 cells containing the rat EAAT1 glutamate transporter
Text: as §3, §4, §5

Male, NIH-Swiss mice = assay: Mouse forced-swim; format: in vivo
Experimental: Male, NIH-Swiss mice (20-25 g, Harlan Sprague-Dawley, Indianapolis, Ind.) are used in a method modified from that of Porsolt R D, Le Pichon M, Jalfre M Depression: a new animal model sensitive to antidepressant treatments. Nature. 1977 Apr. 21; 266(5604):730-2. Mice are placed in clear plastic cylinders (diameter 10 cm; height: 25 cm) filled to 6 cm with 22-25° C. water for six min. The duration of immobility is recorded during the last 4 min of a six-minute trial. A mouse is regarded as immobile when floating motionless or making only those movements necessary to keep its head above the water. Data are analyzed by post-hoc Dunnett's test with alpha level set at 0.05. The amount of time spent immobile is measured. Means+S.E.M. are subjected to ANOVA followed by Dunnett's test with p<0.05 set as the error rate for statistical significance. ED60 values are extrapolated from the linear portion of the dose-effect curve and represent the dose predicted to decrease basal immobility (100% at 0 mg/kg compound) by 60%. The maximal decrease in immobility time is calculated using the largest decrease in immobility produced at any dose of a compound with this formula: (100-immobility with compound/immobility under vehicle control) %.

[4] = reserpine 1 mg/kg i.p. + 3 mg/kg p.o. test compound
[5] = reserpine 1 mg/kg i.p. + 10 mg/kg p.o. test compound

T1 sequence (P41594 21-1180 isoform P41594-2 limits assumed): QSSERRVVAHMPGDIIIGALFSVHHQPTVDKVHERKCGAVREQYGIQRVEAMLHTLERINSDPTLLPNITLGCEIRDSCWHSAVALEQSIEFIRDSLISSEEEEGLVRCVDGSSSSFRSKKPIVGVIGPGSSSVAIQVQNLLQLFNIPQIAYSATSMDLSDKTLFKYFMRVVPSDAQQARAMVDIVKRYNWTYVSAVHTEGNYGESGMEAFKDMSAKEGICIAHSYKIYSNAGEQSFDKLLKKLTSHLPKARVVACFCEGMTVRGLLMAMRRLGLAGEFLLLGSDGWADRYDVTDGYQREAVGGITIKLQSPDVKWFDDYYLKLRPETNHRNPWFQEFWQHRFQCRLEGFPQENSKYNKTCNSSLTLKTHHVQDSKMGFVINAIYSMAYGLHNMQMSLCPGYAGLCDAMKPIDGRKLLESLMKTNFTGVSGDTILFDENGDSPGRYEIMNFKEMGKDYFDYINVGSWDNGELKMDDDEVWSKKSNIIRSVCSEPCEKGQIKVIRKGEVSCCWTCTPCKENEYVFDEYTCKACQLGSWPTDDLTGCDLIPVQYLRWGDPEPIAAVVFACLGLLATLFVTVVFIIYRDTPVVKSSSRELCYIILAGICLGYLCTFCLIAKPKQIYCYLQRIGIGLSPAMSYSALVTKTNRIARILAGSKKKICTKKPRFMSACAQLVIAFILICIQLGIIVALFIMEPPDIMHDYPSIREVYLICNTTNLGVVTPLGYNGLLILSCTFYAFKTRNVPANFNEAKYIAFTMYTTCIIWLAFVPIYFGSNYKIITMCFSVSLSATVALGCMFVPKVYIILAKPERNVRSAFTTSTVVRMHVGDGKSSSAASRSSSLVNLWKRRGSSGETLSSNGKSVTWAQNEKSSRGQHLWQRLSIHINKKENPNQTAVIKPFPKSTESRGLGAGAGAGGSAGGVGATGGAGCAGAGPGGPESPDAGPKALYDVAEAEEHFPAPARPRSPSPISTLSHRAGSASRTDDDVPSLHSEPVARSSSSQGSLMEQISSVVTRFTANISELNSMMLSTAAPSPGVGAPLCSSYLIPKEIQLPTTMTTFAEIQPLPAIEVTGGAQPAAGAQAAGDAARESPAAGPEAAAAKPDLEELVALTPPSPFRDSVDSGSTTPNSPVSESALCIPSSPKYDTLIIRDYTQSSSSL
T2 sequence (Q13255 19-1194): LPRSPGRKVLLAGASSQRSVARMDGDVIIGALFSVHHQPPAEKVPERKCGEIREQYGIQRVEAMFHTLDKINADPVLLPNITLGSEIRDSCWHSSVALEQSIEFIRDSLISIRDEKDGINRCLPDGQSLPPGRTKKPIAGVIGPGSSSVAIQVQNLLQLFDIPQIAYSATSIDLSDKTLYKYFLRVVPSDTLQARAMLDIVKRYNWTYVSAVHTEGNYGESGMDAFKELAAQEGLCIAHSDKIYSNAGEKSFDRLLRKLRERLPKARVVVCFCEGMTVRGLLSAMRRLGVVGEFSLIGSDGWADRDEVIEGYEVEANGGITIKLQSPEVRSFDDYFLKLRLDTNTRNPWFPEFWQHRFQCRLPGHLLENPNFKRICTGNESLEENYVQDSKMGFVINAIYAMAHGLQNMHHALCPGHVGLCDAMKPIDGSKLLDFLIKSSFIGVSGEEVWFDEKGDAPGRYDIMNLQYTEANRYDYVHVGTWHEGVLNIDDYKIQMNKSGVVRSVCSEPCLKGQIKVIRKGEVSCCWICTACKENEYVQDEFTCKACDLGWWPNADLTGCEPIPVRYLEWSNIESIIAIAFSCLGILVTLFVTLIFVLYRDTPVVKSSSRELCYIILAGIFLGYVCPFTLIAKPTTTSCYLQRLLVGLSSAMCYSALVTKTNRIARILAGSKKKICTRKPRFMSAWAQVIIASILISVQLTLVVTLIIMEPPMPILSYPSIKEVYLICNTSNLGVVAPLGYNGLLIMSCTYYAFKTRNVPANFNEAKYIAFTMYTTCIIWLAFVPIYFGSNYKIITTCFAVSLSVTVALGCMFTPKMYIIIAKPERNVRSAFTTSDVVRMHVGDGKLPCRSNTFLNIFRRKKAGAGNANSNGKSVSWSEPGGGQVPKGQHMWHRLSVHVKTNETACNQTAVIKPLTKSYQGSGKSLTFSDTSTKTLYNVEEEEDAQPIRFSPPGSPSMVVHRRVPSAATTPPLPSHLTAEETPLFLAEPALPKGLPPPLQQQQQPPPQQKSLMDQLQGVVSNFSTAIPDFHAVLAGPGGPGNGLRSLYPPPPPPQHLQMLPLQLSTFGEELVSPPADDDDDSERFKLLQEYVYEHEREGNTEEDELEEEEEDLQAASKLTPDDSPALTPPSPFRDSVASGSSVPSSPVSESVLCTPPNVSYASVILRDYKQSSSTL

SMILES: CCn1cc(N2CCN(C(=O)OC)CC2=O)c2ccc(OCc3ccccn3)nc21 [Example 23, methyl 4-[1-ethyl-6-(pyridin-2-ylmethoxy)-1H-pyrrolo[2,3-b]pyridin-3-yl]-3-oxopiperazine-1-carboxylate]
Basal Locomotor Activity (mean distance moved (cm) in 120 min) (C57/black 6J male mice [1]; 3 mg/kg p.o.): 21628.2 ** cm | Basal Locomotor Activity (mean distance moved (cm) in 120 min) (C57/black 6J male mice [1]; 10 mg/kg p.o.): 31070.8 *** cm

SMILES: COC(=O)[C@H]1[C@H]2C[C@@H]3c4[nH]c5cc(OC)ccc5c4CCN3C[C@H]2C[C@@H](OC(=O)c2cc(OC)c(OC)c(OC)c2)[C@@H]1OC [reserpine, Reserpine, reference compound]
mean distance moved (cm) in 120 min, reserpine alone (C57/black 6J male mice [2]; 18-24 hours after single dose of 1 mg/kg reserpine i.p., no test compound, 1 mg/kg): 4118.6 cm and 7331.1 cm and 4597.2 cm and 6150 cm

SMILES: CCCOC(=O)N1CCN(c2cn(C)c3nc(OCc4ccccn4)ccc23)C(=O)C1 [Example 3, Propyl 4-[1-methyl-6-(pyridin-2-ylmethoxy)-1H-pyrrolo[2,3-b]pyridin-3-yl]-3-oxopiperazine-1-carboxylate]
Basal Locomotor Activity (mean distance moved (cm) in 120 min) (C57/black 6J male mice [1]; 3 mg/kg p.o.): 28458.8 *** cm | Basal Locomotor Activity (mean distance moved (cm) in 120 min) (C57/black 6J male mice [1]; 10 mg/kg p.o.): 39857.5 *** cm | T35 dose (dose producing a 35% reduction in stress-induced hyperthermia relative to vehicle) [3]: 0.93 mg/kg

SMILES: CCOC(=O)N1CCN(c2cn(C)c3nc(OCc4ccccn4)c(C)cc23)C(=O)C1 [Example 28, Ethyl 4-[1,5-dimethyl-6-(pyridin-2-ylmethoxy)-1H-pyrrolo[2,3-b]pyridin-3-yl]-3-oxopiperazine-1-carboxylate]
Basal Locomotor Activity (mean distance moved (cm) in 120 min) (C57/black 6J male mice [1]; 3 mg/kg p.o.): 25074.1 ** cm | Basal Locomotor Activity (mean distance moved (cm) in 120 min) (C57/black 6J male mice [1]; 10 mg/kg p.o.): 32866.2 *** cm | Reversal of Reserpine-Induced Akinesia (mean distance moved (cm) in 120 min) (C57/black 6J male mice [2]; [4]): 7848.9 cm | Reversal of Reserpine-Induced Akinesia (mean distance moved (cm) in 120 min) (C57/black 6J male mice [2]; [5]): 14087.6 **+++ cm

SMILES: CC(C)OC(=O)N1CCN(c2cn(C)c3nc(OCc4ccccn4)ccc23)C(=O)C1 [Example 4, 1-Methylethyl 4-[1-methyl-6-(pyridin-2-ylmethoxy)-1H-pyrrolo[2,3-b]pyridin-3-yl]-3-oxopiperazine-1-carboxylate]
Basal Locomotor Activity (mean distance moved (cm) in 120 min) (C57/black 6J male mice [1]; 3 mg/kg p.o.): 30715.2 ** cm | Basal Locomotor Activity (mean distance moved (cm) in 120 min) (C57/black 6J male mice [1]; 10 mg/kg p.o.): 39935.6 *** cm | Reversal of Reserpine-Induced Akinesia (mean distance moved (cm) in 120 min) (C57/black 6J male mice [2]; [4]): 16474.1 + cm | Reversal of Reserpine-Induced Akinesia (mean distance moved (cm) in 120 min) (C57/black 6J male mice [2]; [5]): 23394.4± **+++ cm

IC50 (human mGluR5): 184 nM | IC50 (human mGluR1): > 12500 nM | melting point: 143.42 °C
SMILES: CCOC(=O)N1CCN(c2cn(C)c3nc(OCc4ccccn4)ccc23)C(=O)C1 [Example 1, ethyl 4-[1-methyl-6-(pyridin-2-ylmethoxy)-1H-pyrrolo[2,3-b]pyridin-3-yl]-3-oxopiperazine-1-carboxylate]
Basal Locomotor Activity (mean distance moved (cm) in 120 min) (C57/black 6J male mice [1]; 1 mg/kg p.o.): 12147 ** cm | Basal Locomotor Activity (mean distance moved (cm) in 120 min) (C57/black 6J male mice [1]; 3 mg/kg p.o.): 15980 *** cm | Basal Locomotor Activity (mean distance moved (cm) in 120 min) (C57/black 6J male mice [1]; 10 mg/kg p.o.): 25109 *** cm | Reversal of Reserpine-Induced Akinesia (mean distance moved (cm) in 120 min) (C57/black 6J male mice [2]; reserpine 1 mg/kg i.p. + 1 mg/kg p.o. test compound): 15392 ++ cm | Reversal of Reserpine-Induced Akinesia (mean distance moved (cm) in 120 min) (C57/black 6J male mice [2]; [4]): 23611 ***+++ cm | Reversal of Reserpine-Induced Akinesia (mean distance moved (cm) in 120 min) (C57/black 6J male mice [2]; reserpine 1 mg/kg i.p. + 30 mg/kg p.o. test compound): 32607 ***+++ cm | T35 dose (dose producing a 35% reduction in stress-induced hyperthermia relative to vehicle) [3]: 0.55 mg/kg | ED60 dose, reduction in forced swim immobility (Male, NIH-Swiss mice; extrapolated from linear portion of dose-effect curve): 8.6 mg/kg | maximal decrease in immobility (Male, NIH-Swiss mice; largest decrease at any dose relative to vehicle control): 50.6%

SMILES: CCOC(=O)N1CCN(c2cn(C)c3nc(OCc4ccccn4)c(Cl)cc23)C(=O)C1 [Example 27, Ethyl 4-[5-chloro-1-methyl-6-(pyridin-2-ylmethoxy)-1H-pyrrolo[2,3-b]pyridin-3-yl]-3-oxopiperazine-1-carboxylate]
Basal Locomotor Activity (mean distance moved (cm) in 120 min) (C57/black 6J male mice [1]; 3 mg/kg p.o.): 35290.1 *** cm | Basal Locomotor Activity (mean distance moved (cm) in 120 min) (C57/black 6J male mice [1]; 10 mg/kg p.o.): 36889.1 *** cm | Reversal of Reserpine-Induced Akinesia (mean distance moved (cm) in 120 min) (C57/black 6J male mice [2]; [4]): 27053.7 ***+++ cm | Reversal of Reserpine-Induced Akinesia (mean distance moved (cm) in 120 min) (C57/black 6J male mice [2]; [5]): 23432.5 **+++ cm

Reference: US8778946B2, “3-substituted-6-(pyridinylmethoxy)-pyrrolopyridine compounds” (Eli Lilly and Company, priority 2010, dated 2014)
